{"source": "patent US20260108532A1", "about": "“COMPOSITION FOR PREVENTING HEART DISEASES CAUSED BY PULMONARY HYPERTENSION AND TREATING HEART, AND FUNCTIONAL FORMULATION COMPRISING SAME” (CARESIDE CO., LTD., priority 2023, published 2026)", "origin": "cited, not measured here", "key": {"[1]": {"settings": "potassium-sparing diuretic such as spironolactone"}, "[2]": {"tested_on": "dogs with subclinical myxomatous mitral valve disease (MMVD)", "settings": "compared with placebo-administered group"}, "[3]": {"tested_on": "dogs with subclinical (asymptomatic) CMVI", "settings": "at 35 days of administration, compared to placebo administered group"}, "[4]": {"settings": "dogs; long-term administration"}}}
{"compound": "CC(=O)S[C@@H]1CC2=CC(=O)CC[C@]2(C)[C@H]2CC[C@@]3(C)[C@@H](CC[C@@]34CCC(=O)O4)[C@H]12", "note": "[spironolactone, Spironolactone]", "values": [{"measurement": "diuretic effect as share of the efficacy of the loop diuretic", "setting": "[1]", "result": "~10", "unit": "%"}, {"measurement": "increase in heart size and cardiac biomarker concentration on cardiac ultrasound", "setting": "[2]", "result": "much smaller"}]}
{"compound": "COc1ccc(-c2nc3ccc(C4=NNC(=O)CC4C)cc3[nH]2)cc1", "note": "(stereo not shown) [pimobendan, Pimobendan]", "values": [{"measurement": "LVIDd and LA/Ao on imaging diagnosis", "setting": "[3]", "result": "decreased"}]}
{"compound": "Cc1cccc(Nc2ccncc2S(=O)(=O)NC(=O)NC(C)C)c1", "note": "[torsemide, Torsemide]", "values": [{"measurement": "ceiling effect", "setting": "[4]", "result": "almost no ceiling effect"}]}
